17 compounds from patent US20230174507A1, “IMIDAZOLE 3-OXIDE DERIVATIVE BASED ACSS2 INHIBITORS AND METHODS OF USE THEREOF” (METABOMED LTD., priority 2020, published 2023) can be followed below.

In one assay the target is T1, human ACSS1 protein (Homo sapiens, UniProt Q9NUB1).
T1 construct: purchased MyBioSource
T1 sequence (Q9NUB1 38-689): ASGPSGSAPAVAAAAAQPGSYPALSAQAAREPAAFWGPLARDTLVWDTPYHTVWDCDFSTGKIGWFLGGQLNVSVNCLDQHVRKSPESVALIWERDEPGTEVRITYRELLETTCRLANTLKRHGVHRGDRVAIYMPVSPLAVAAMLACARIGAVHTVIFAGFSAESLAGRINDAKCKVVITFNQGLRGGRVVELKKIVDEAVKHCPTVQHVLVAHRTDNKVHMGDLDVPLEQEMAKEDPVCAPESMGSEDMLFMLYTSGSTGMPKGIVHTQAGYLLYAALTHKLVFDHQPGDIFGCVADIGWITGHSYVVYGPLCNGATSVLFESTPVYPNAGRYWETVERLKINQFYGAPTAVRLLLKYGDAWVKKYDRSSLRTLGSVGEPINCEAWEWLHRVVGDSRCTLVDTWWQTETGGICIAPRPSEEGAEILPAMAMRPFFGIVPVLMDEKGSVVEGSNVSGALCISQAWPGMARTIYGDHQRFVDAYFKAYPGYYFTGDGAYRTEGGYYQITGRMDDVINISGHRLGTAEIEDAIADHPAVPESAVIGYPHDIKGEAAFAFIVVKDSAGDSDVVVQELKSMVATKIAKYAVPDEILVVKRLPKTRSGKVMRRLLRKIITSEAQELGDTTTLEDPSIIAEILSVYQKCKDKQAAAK
As to the kind of experiment: ACSS1 cell-free activity assay (pyrophosphatase-coupled, Biomol green). The class given is biochemical. Particulars: 5 nM human ACSS1, 30 minutes at room temperature, absorbance at 620 nm; call rule not given here. The procedure:
ACSS1 Cell-Free Activity Assay (Cell-Free IC50)
The assay is based on a coupling reaction with Pyrophosphatase: ACSS1 is converting ATP+CoA+Acetate=>AMP+pyrophosphate+Acetyl-CoA (Ac-CoA). Pyrophosphatase converts pyrophosphate, a product of the ACSS1 reaction, to phosphate which can be detected by measuring the absorbance at 620 nm after incubation with the Biomol green reagent (Enzo life Science, BML-AK111).
(§1) Cell Free IC50 Determination:
5 nM of human ACSS1 protein (MyBioSource) was incubated for 30 minutes at room temperature with various compounds' concentrations in a reaction containing 50 mM Hepes pH 7.5, 10 mM DTT, 90 mM KCl, 0.006% Tween-20, 0.1 mg/ml BSA, 2 mM MgCl2, 15 μM CoA, 5 mM NaAc, 300 μM ATP and 0.5 U/ml Pyrophosphatase (Sigma). At the end of the reaction, Biomol Green was added for 30 minutes at RT and the activity was measured by reading the absorbance at 620 nm. IC50 values were calculated using non-linear regression curve fit with 0% and 100% constrains (CDD Vault, Collaborative Drug Discovery, Inc.).

The target of another assay is T2, human ACSS2 protein (Homo sapiens, UniProt Q9NR19).
T2 construct: purchased OriGene Technologies, Inc
T2 sequence (Q9NR19 whole entry): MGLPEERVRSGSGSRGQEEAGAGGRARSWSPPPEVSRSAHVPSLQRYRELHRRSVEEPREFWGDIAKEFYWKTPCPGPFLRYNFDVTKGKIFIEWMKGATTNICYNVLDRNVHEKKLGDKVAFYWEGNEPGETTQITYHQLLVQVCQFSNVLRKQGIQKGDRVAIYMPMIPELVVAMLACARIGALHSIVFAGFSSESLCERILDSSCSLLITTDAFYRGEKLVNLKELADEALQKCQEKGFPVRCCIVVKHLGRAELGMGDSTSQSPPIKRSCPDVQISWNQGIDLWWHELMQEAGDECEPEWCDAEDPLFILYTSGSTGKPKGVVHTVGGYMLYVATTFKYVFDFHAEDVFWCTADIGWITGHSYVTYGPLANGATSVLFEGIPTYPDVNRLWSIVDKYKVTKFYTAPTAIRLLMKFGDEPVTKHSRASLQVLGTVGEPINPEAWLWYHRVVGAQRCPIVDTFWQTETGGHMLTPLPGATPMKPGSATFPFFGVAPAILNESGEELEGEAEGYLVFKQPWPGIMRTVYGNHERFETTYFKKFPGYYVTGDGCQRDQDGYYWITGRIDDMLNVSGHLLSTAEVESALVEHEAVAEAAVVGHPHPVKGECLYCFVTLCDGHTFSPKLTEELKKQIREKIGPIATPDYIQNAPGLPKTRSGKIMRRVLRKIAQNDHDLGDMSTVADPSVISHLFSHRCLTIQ
As to the kind of experiment: ACSS2 cell-free activity assay (pyrophosphatase-coupled, Biomol green). Particulars: 10 nM human ACSS2, 90 minutes at 37 C, absorbance at 620 nm; read-out: ACSS2 Biochemical IC50. As for the experimental part: ACSS2 Cell-Free Activity Assay (Cell-Free IC50)
The assay is based on a coupling reaction with Pyrophosphatase: ACSS2 is converting ATP+CoA+Acetate=>AMP+pyrophosphate+Acetyl-CoA (Ac-CoA). Pyrophosphatase converts pyrophosphate, a product of the ACSS2 reaction, to phosphate which can be detected by measuring the absorbance at 620 nm after incubation with the Biomol green reagent (Enzo life Science, BML-AK111).
as §1
10 nM of human ACSS2 protein (OriGene Technologies, Inc) was incubated for 90 minutes at 37 C with various compounds' concentrations in a reaction containing 50 mM Hepes pH 7.5, 10 mM DTT, 90 mM KCl, 0.006% Tween-20, 0.1 mg/ml BSA, 2 mM MgCl2, 10 μM CoA, 5 mM NaAc, 300 μM ATP and 0.5 U/ml Pyrophosphatase (Sigma). At the end of the reaction, Biomol Green was added for 30 minutes at RT and the activity was measured by reading the absorbance at 620 nm. IC50 values were calculated using non-linear regression curve fit with 0% and 100% constrains (CDD Vault, Collaborative Drug Discovery, Inc.).

`CCC(F)(F)c1cccc(NC(=O)c2c(C)[nH]c(-c3ccc(OC)c(-c4c(C)cc(C)cc4C)c3)[n+]2[O-])c1` [Compound 152, 4-((3-(1,1-difluoropropyl)phenyl)carbamoyl)-2-(6-methoxy-2′,4′,6′-trimethyl-[1,1′-biphenyl]-3-yl)-5-methyl-1H-imidazole 3-oxide]: the “ACSS1 Biochemical IC50 (nM)” value at human ACSS1 protein is listed as “Inactive”. Further, on human ACSS2 protein, the IC50 lay in the range of 0.001 to 0.03 µM. With `CCC(F)(F)c1cccc(NC(=O)c2c(C)[nH]c(-c3ccc(OC)c(-c4ncccn4)c3C)[n+]2[O-])c1` [Compound 118, 4-((3-(1,1-difluoropropyl)phenyl)carbamoyl)-2-(4-methoxy-2-methyl-3-(pyrimidin-2-yl)phenyl)-5-methyl-1H-imidazole 3-oxide], the “ACSS1 Biochemical IC50 (nM)” value on human ACSS1 protein is “Inactive”. Further, the IC50 on human ACSS2 protein was greater than 0.03 µM. Take `CCCCc1cc(-c2c(C)cccc2C)cc(-c2[nH]c(C)c(C(=O)Nc3cccc(C(F)(F)C4CC4)c3)[n+]2[O-])c1` [Compound 161, 2-(5-butyl-2′,6′-dimethyl-[1,1′-biphenyl]-3-yl)-4-((3-(cyclopropyldifluoromethyl)phenyl)carbamoyl)-5-methyl-1H-imidazole 3-oxide]: the “ACSS1 Biochemical IC50 (nM)” value at human ACSS1 protein is given as “Inactive”. Besides, on human ACSS2 protein, the IC50 was less than 0.001 µM.

For the compound `CCN(C)C(=O)c1cccc(NC(=O)c2c(C)[nH]c(-c3ccc(OC)c(-c4c(C)cccc4C)c3)[n+]2[O-])c1` [Compound 140, 4-((3-(ethyl(methyl)carbamoyl)phenyl)carbamoyl)-2-(6-methoxy-2′,6′-dimethyl-[1,1′-biphenyl]-3-yl)-5-methyl-1H-imidazole 3-oxide], the “ACSS1 Biochemical IC50 (nM)” value on human ACSS1 protein is on record as “Inactive”. Moreover, the IC50 at human ACSS2 protein is 0.001 to 0.03 µM. In the case of `COc1ccc(-c2[nH]c(C)c(C(=O)Nc3cccc(-c4ccc[nH]4)c3)[n+]2[O-])cc1-c1c(C)cccc1C` [Compound 191, 4-((3-(1H-pyrrol-2-yl)phenyl)carbamoyl)-2-(6-methoxy-2′,6′-dimethyl-[1,1′-biphenyl]-3-yl)-5-methyl-1H-imidazole 3-oxide], on human ACSS1 protein, the “ACSS1 Biochemical IC50 (nM)” value is “Inactive”. The IC50 on human ACSS2 protein is greater than 0.03 µM.

Turning to `CCC(F)(F)c1cccc(NC(=O)c2c(C)[nH]c(-c3ccc(OC)c(-c4c(C)cc(CCc5ccccc5)cc4C)c3)[n+]2[O-])c1` [Compound 154, 4-((3-(1,1-difluoropropyl)phenyl)carbamoyl)-2-(6-methoxy-2′,6′-dimethyl-4′-phenethyl-[1,1′-biphenyl]-3-yl)-5-methyl-1H-imidazole 3-oxide], the “ACSS1 Biochemical IC50 (nM)” value at human ACSS1 protein is reported as “Inactive”. On human ACSS2 protein, the IC50 is greater than 0.03 µM.

With `CCC(F)(F)c1cccc(NC(=O)c2c(C)[nH]c(-c3ccc(OC)c(C4CCCCC4)c3)[n+]2[O-])c1` [Compound 145, 2-(3-cyclohexyl-4-methoxyphenyl)-4-((3-(1,1-difluoropropyl)phenyl)carbamoyl)-5-methyl-1H-imidazole 3-oxide], the “ACSS1 Biochemical IC50 (nM)” value at human ACSS1 protein was “Inactive”. Moreover, at human ACSS2 protein, the IC50 is greater than 0.03 µM. With `CCC(F)(F)c1cccc(NC(=O)c2c(C)[nH]c(-c3ccc(OC)c(C4CCN(C)CC4)c3)[n+]2[O-])c1` [Compound 166, N-[3-(1,1-difluoropropyl)phenyl]-2-[4-methoxy-3-(1-methyl-4-piperidyl)phenyl]-5-methyl-3-oxido-1H-imidazol-3-ium-4-carboxamide], on human ACSS1 protein, the “ACSS1 Biochemical IC50 (nM)” value was “Inactive”. The IC50 at human ACSS2 protein was greater than 0.03 µM. Consider `COCCN(C)C(=O)c1cccc(NC(=O)c2c(C)[nH]c(-c3ccc(OC)c(-c4c(C)cccc4C)c3)[n+]2[O-])c1` [Compound 141, 2-(6-methoxy-2′,6′-dimethyl-[1,1′-biphenyl]-3-yl)-4-((3-((2-methoxyethyl)(methyl)carbamoyl)phenyl)carbamoyl)-5-methyl-1H-imidazole 3-oxide], for which the “ACSS1 Biochemical IC50 (nM)” value at human ACSS1 protein is listed as “Inactive”. The IC50 at human ACSS2 protein was greater than 0.03 µM.

In the case of `CCC(F)(F)c1cccc(NC(=O)c2c(C)[nH]c(-c3ccc(OC)c(N4CCNCC4)c3)[n+]2[O-])c1` [Compound 164, 4-((3-(1,1-difluoropropyl)phenyl)carbamoyl)-2-(4-methoxy-3-(piperazin-1-yl)phenyl)-5-methyl-1H-imidazole 3-oxide], the “ACSS1 Biochemical IC50 (nM)” value at human ACSS1 protein is “Inactive”. The IC50 at human ACSS2 protein was less than 0.001 µM. Take `Cc1cccc(C)c1-c1cc(-c2c(C)cccc2C)cc(-c2[nH]c(C)c(C(=O)Nc3cccc(C(F)(F)C4CC4)c3)[n+]2[O-])c1` [Compound 132, 4-((3-(cyclopropyldifluoromethyl)phenyl)carbamoyl)-5-methyl-2-(2,2″,6,6″-tetramethyl-[1,1′:3′,1″-terphenyl]-5′-yl)-1H-imidazole 3-oxide]: on human ACSS1 protein, the “ACSS1 Biochemical IC50 (nM)” value is on record as “Inactive”. For the same compound, the IC50 at human ACSS2 protein was 0.001 to 0.03 µM.

With `CCC(F)(F)c1cccc(NC(=O)c2c(C)[nH]c(-c3ccc(C(C)C)c(-c4c(C)cccc4C)c3)[n+]2[O-])c1` [Compound 117, 4-((3-(1,1-difluoropropyl)phenyl)carbamoyl)-2-(6-isopropyl-2′,6′-dimethyl-[1,1′-biphenyl]-3-yl)-5-methyl-1H-imidazole 3-oxide], the “ACSS1 Biochemical IC50 (nM)” value on human ACSS1 protein is “Inactive”. The IC50 on human ACSS2 protein fell in the range of 0.001 to 0.03 µM.

As for `CCC(F)(F)c1cccc(NC(=O)c2c(C)[nH]c(-c3ccc(OC)c(C4CCNCC4)c3)[n+]2[O-])c1` [Compound 162, 4-((3-(1,1-difluoropropyl)phenyl)carbamoyl)-2-(4-methoxy-3-(piperidin-4-yl)phenyl)-5-methyl-1H-imidazole 3-oxide], the “ACSS1 Biochemical IC50 (nM)” value on human ACSS1 protein is “Inactive”. For the same compound, the IC50 on human ACSS2 protein was less than 0.001 µM. Take `CCC(F)(F)c1cccc(NC(=O)c2c(C)[nH]c(-c3ccc(OC)c(N4CCN(C)CC4)c3)[n+]2[O-])c1` [Compound 165, 4-((3-(1,1-difluoropropyl)phenyl)carbamoyl)-2-(4-methoxy-3-(4-methylpiperazin-1-yl)phenyl)-5-methyl-1H-imidazole 3-oxide]: on human ACSS1 protein, the “ACSS1 Biochemical IC50 (nM)” value is on record as “Inactive”. Moreover, at human ACSS2 protein, the IC50 was less than 0.001 µM. For `CCC(F)(F)c1cccc(NC(=O)c2c(C)n(COC(C)=O)c(-c3ccc(OC)c(-c4c(C)cccc4C)c3)[n+]2[O-])c1` [Compound 200, 1-(acetoxymethyl)-4-((3-(1,1-difluoropropyl)phenyl)carbamoyl)-2-(6-methoxy-2′,6′-dimethyl-[1,1′-biphenyl]-3-yl)-5-methyl-1H-imidazole 3-oxide], at human ACSS1 protein, the “ACSS1 Biochemical IC50 (nM)” value was “Inactive”. Besides, the IC50 on human ACSS2 protein was greater than 0.03 µM. For `CCC(F)(F)c1cccc(NC(=O)c2c(C)[nH]c(-c3ccc(OC)c(-c4ccncn4)c3C)[n+]2[O-])c1` [Compound 144, 4-((3-(1,1-difluoropropyl)phenyl)carbamoyl)-2-(4-methoxy-2-methyl-3-(pyrimidin-4-yl)phenyl)-5-methyl-1H-imidazole 3-oxide], the “ACSS1 Biochemical IC50 (nM)” value at human ACSS1 protein is on record as “Inactive”. Besides, the IC50 at human ACSS2 protein was greater than 0.03 µM. With `CCC(F)(F)c1cccc(NC(=O)c2c(C)[nH]c(-c3cc(C)cc(-c4c(C)cccc4C)c3)[n+]2[O-])c1` [Compound 130, 4-((3-(1,1-difluoropropyl)phenyl)carbamoyl)-5-methyl-2-(2′,5,6′-trimethyl-[1,1′-biphenyl]-3-yl)-1H-imidazole 3-oxide], the IC50 on human ACSS2 protein was 0.001 to 0.03 µM.
